Results as given in US20040023962A1, “Use of medicaments” (priority 2000, published 2004).
Like-named read-outs stand apart in the source and are kept apart here.

How the values were obtained:
[1] = test system: supramaximal electroshock (MES) model; details: rat; cited from earlier work
[2] = test system: cochlea nerve compound action potential (CAP); experiment: Otoprotection after acute noise insult: CAP threshold shifts; format: in vivo, guinea pig; details: 20 mg/kg about 2 hours before 15 minutes filtered (5-20 KHz) noise; 8, 16, 24 and 30 KHz
Procedure: Sedation was achieved using an intramuscular injection of 0.5 mL/kg medetomidine followed by an intraperitoneal injection of 6 mL/kg fentanyl approximately 10 minutes later (loss of the pedal reflex was used to determine sufficient sedation for surgery).
The cochlea nerve compound action potential (CAP) was generated in response to discrete acoustic stimuli. It was used to determine both control and treatment related changes in auditory thresholds by measuring changes in CAP latency (milliseconds) and amplitude (μVolts).
Tone ‘pip’ stimuli of 5 millisecond duration were computer generated at 8, 16, 24 and 30 KHz and fed to an attenuator (1 dB resolution). The tone pip was then fed to a Bruel and Kjaer 4192, (microphone) serving as an acoustic driver, which was placed inside an ear speculum coupled to the ear canal. CAP averaging was performed between ×50 to 100 times and the CAP threshold was determined by visual inspection of the recorded time signal. Accuracy was typically between 1-3 dB, using a CAP detection criterion of approximately 1 μV.
Animals were then exposed to 15 minutes filtered (5-20 KHz) free field noise (approximately […]) during which ESAC measurements were made at 5 minute intervals.

[3] = Assay of plasma and perilymph for lamotrigine (pharmacokinetic evaluation); format: in vivo; details: guinea pig, single oral dose 20 mg/kg; for concentration at 15 h / Tmax / Cmax: male, albino
Procedure: All solutions were prepared fresh on the day of dosing and stored at 2-8° C., protected from light, between dosing sessions. In order to establish the otoprotective properties of LTG, a pharmacokinetic evaluation study was designed to establish penetration of LTG into guinea pig perilymph and plasma. A total of 17 healthy adult male albino guinea pigs were used. […] Two untreated control animals were also sampled for comparison. […] After the terminal blood sample had been taken, the animal received an overdose of anaesthetic and was decapitated. The bulla was removed and thoroughly cleaned to remove all tissue and fluids. […] Levels of LTG in both plasma and perilymph were determined using a protein precipitation extraction procedure using high performance liquid chromatography (HPLC) with ultraviolet (UV) detection. The LTG retention time was 5.4 minutes and quantification was carried out using peak areas.

For `Nc1nnc(-c2cccc(Cl)c2Cl)c(N)n1` [LTG, 3,5-Diamino-6-(2,3-dichlorophenyl)-1,2,4-triazine], the “effective oral dose (ED50)” value [1] is given as 6.8 mg/kg, the “CAP threshold shifts after noise versus noise control” value [2] is given as “mean thresholds were higher in the LTG treated animals and reached statistical significance at 8 kHz” and the “levels in perilymph relative to plasma” value ([3]; timepoints 1-15 hours) is given as “approximately twice”. For the same molecule, the concentration at 15 h ([3]; perilymph, read-out: mean perilymph LTG level after the 15 hour sampling period) was 3200 ng/mL, the Tmax ([3]; perilymph, read-out: perilymph approximate mean time of maximum concentration (Tmax)) was roughly 2 h and the Cmax ([3]; perilymph, read-out: perilymph mean maximum concentration (Cmax)) was 6140 ng/mL. It also gave a concentration at 15 h ([3]; plasma, read-out: mean plasma LTG level after the 15 hour sampling period) of 1000 ng/mL, a Cmax ([3]; plasma, read-out: mean plasma Cmax) of 3590 ng/mL and a Tmax ([3]; plasma, read-out: plasma Tmax) of 1 h.
